For the assay, the system named is 327498-153-R-J2-PDC multicell spheroid viability. The experiment in a line: Anticancer human tumor 327498-153-R-J2-PDC patient-derived uterine carcinosarcoma cell line growth inhibition [IpAb]. The following applies: for viability, T/C: stronger effect = lower value. The method, boiled down: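 Multi-cell spheroids of 60% tumour cells, 25% HUVEC and 15% MSC in ultra-low-attachment U-bottom wells, treated with agents combined with ipatasertib or abemaciclib. Half-log ranges top out near clinical Cmax, or 10 microM when Cmax is unknown.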

The mark [1] stands for this setting: curve of first compound, second compound 0.01 µM.
The mark [2] stands for this setting: curve of first compound, second compound 0.0316 µM.
Where [3] appears, read: curve of first compound, second compound 0.1 µM.
Setting [4] is: curve of first compound, second compound 0.316 µM.
[5] abbreviates: curve of first compound, second compound 1 µM.
Where [6] appears, read: second compound 0.1 µM, first compound 0.00949 µM.
The mark [7] stands for this setting: second compound 0.1 µM, first compound 0.03 µM.
Setting [8] is: second compound 0.1 µM, first compound 0.0949 µM.
Where [9] appears, read: second compound 0.1 µM, first compound 0.3 µM.
Where [10] appears, read: second compound 0.316 µM, first compound 0.00949 µM.
Where [11] appears, read: second compound 0.316 µM, first compound 0.03 µM.
The mark [12] stands for this setting: second compound 0.316 µM, first compound 0.0949 µM.
The mark [13] stands for this setting: second compound 0.316 µM, first compound 0.3 µM.
The mark [14] stands for this setting: second compound 1 µM, first compound 0.00949 µM.
[15] abbreviates: second compound 1 µM, first compound 0.03 µM.
Where [16] appears, read: second compound 1 µM, first compound 0.0949 µM.
Where [17] appears, read: second compound 1 µM, first compound 0.3 µM.

Values joined by “and” are separate entries in the source; they are usually repeats but may differ in a detail not shown here. Identical values can stand only once.
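Further: spheroids exposed to agents for 7 days.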
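Wherever viability, T/C is given: 100% = DMSO vehicle control viability.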

As usually defined, the IC50 is the concentration needed to halve the response being measured. As a reminder, the viability, T/C is the ratio of treated to control. As for `Cc1nc(NC(=O)N2CCCC2C(N)=O)sc1-c1ccnc(C(C)(C)C(F)(F)F)c1` (centres undefined) + CCN1CCN(Cc2ccc(Nc3ncc(F)c(-c4cc(F)c5nc(C)n(C(C)C)c5c4)n3)nc2)CC1, the IC50 is, setting by setting: under setting [1], 6390 nM; under setting [2], 1040 nM; under setting [3], 442 nM; under setting [4], 262 nM; under setting [5], 150 nM. For the same compound, the viability, T/C is, setting by setting: (second compound 0.01 µM, first compound 0.0316 µM) 91.6%; (second compound 0.01 µM, first compound 0.1 µM) 85.8%; (second compound 0.01 µM, first compound 0.316 µM) 77%; (second compound 0.01 µM, first compound 1 µM) 68.2%; (second compound 0.01 µM, first compound 3.16 µM) 63%; (second compound 0.01 µM, first compound 10 µM) 42.5%. Also, the viability, T/C reads like this: (second compound 0.0316 µM, first compound 0.0316 µM) 69.7%; (second compound 0.0316 µM, first compound 0.1 µM) 69.3%; (second compound 0.0316 µM, first compound 0.316 µM) 63.3%; (second compound 0.0316 µM, first compound 1 µM) 46.4%; (second compound 0.0316 µM, first compound 3.16 µM) 41.3%; (second compound 0.0316 µM, first compound 10 µM) 27.3%. For the same compound, the viability, T/C is 61.8% (second compound 0.1 µM, first compound 0.0316 µM); 58.5% (second compound 0.1 µM, first compound 0.1 µM); 50.4% (second compound 0.1 µM, first compound 0.316 µM); 46% (second compound 0.1 µM, first compound 1 µM); 36.9% (second compound 0.1 µM, first compound 3.16 µM); 26% (second compound 0.1 µM, first compound 10 µM). Besides, the viability, T/C runs as follows: (second compound 0.316 µM, first compound 0.0316 µM) 58%; (second compound 0.316 µM, first compound 0.1 µM) 57.2%; (second compound 0.316 µM, first compound 0.316 µM) 47.8%; (second compound 0.316 µM, first compound 1 µM) 42.6%; (second compound 0.316 µM, first compound 3.16 µM) 35.3%; (second compound 0.316 µM, first compound 10 µM) 28.1%. Further, the viability, T/C (second compound 1 µM, first compound 0.0316 µM) is 54%; the viability, T/C (second compound 1 µM, first compound 0.1 µM) is 55.7%; the viability, T/C (second compound 1 µM, first compound 0.316 µM) is 43.5%; the viability, T/C (second compound 1 µM, first compound 1 µM) is 41.1%; the viability, T/C (second compound 1 µM, first compound 3.16 µM) was 34.8%; the viability, T/C (second compound 1 µM, first compound 10 µM) was 25.9%.
In the case of `CC(=O)c1c(C)c2cnc(Nc3ccc(N4CCNCC4)cn3)nc2n(C2CCCC2)c1=O` + CC(C)NCC(C(=O)N1CCN(c2ncnc3c2C(C)CC3O)CC1)c1ccc(Cl)cc1, the IC50 runs as follows: under setting [3], more than 300 nM; under setting [4], 45.7 nM; under setting [5], 7.23 nM; (curve of first compound, second compound 3.16 µM) 1.34 nM; (curve of first compound, second compound 10 µM) less than 0.949 nM. The viability, T/C by setting is: (second compound 0.1 µM, first compound 0.000949 µM) 96.4%; (second compound 0.1 µM, first compound 0.003 µM) 101%; under setting [6], 91.2%; under setting [7], 68.8%; under setting [8], 65.9%; under setting [9], 55.4%. The viability, T/C is 81.6% (second compound 0.316 µM, first compound 0.000949 µM); 71.2% (second compound 0.316 µM, first compound 0.003 µM); 68.2% under setting [10]; 51.8% under setting [11]; 44.1% under setting [12]; 41.5% under setting [13]. Further, the viability, T/C reads like this: (second compound 1 µM, first compound 0.000949 µM) 61.5%; (second compound 1 µM, first compound 0.003 µM) 57.5%; under setting [14], 48%; under setting [15], 34.1%; under setting [16], 34.5%; under setting [17], 31.3%. Also, the viability, T/C (second compound 3.16 µM, first compound 0.000949 µM) is 51.7%; the viability, T/C (second compound 3.16 µM, first compound 0.003 µM) was 46.2%; the viability, T/C (second compound 3.16 µM, first compound 0.00949 µM) was 35.2%; the viability, T/C (second compound 3.16 µM, first compound 0.03 µM) is 33.4%; the viability, T/C (second compound 3.16 µM, first compound 0.0949 µM) is 25%; the viability, T/C (second compound 3.16 µM, first compound 0.3 µM) is 24.6%. Moreover, the viability, T/C reads like this: (second compound 10 µM, first compound 0.000949 µM) 33.4%; (second compound 10 µM, first compound 0.003 µM) 36.7%; (second compound 10 µM, first compound 0.00949 µM) 28.1%; (second compound 10 µM, first compound 0.03 µM) 20.9%; (second compound 10 µM, first compound 0.0949 µM) 21.9%; (second compound 10 µM, first compound 0.3 µM) 21.9%.
Regarding `Cn1nccc1Nc1nccc(-c2ccn(C(CO)c3ccc(Cl)c(F)c3)c(=O)c2)n1` (centres undefined), the viability, T/C by setting is: (compound 0.0316 µM) 99.2% and 102%; (compound 0.1 µM) 97.9% and 90.4%; (compound 0.316 µM) 98.9% and 92%; (compound 1 µM) 83.2% and 93.5%; (compound 3.16 µM) 64.7% and 54.9%; (compound 10 µM) 34.4% and 29.1%. For the same compound, for the setting “curve of compound”, the IC50 is 5450 nM and 3930 nM.
With `CCCS(=O)(=O)Nc1ccc(F)c(C(=O)c2c[nH]c3ncc(-c4ccc(Cl)cc4)cc23)c1F`, the viability, T/C (compound 0.0316 µM) was 105% and 102%; the viability, T/C (compound 0.1 µM) was 116% and 103%; the viability, T/C (compound 0.316 µM) was 106% and 101%; the viability, T/C (compound 1 µM) is 106% and 98.7%; the viability, T/C (compound 3.16 µM) was 101% and 96.1%; the viability, T/C (compound 10 µM) was 87.3% and 92.8%. Where the note is “curve of compound”, the IC50 is more than 10000 nM.
With `CCN1CCN(Cc2ccc(Nc3ncc(F)c(-c4cc(F)c5nc(C)n(C(C)C)c5c4)n3)nc2)CC1`, the viability, T/C by setting is: (compound 0.01 µM) 92% [middle of 13 runs]; (compound 0.0316 µM) 72.6% [middle of 13 runs]; (compound 0.1 µM) 62.2% [middle of 13 runs]; (compound 0.316 µM) 57.3% [middle of 13 runs]; (compound 1 µM) 56.8% [middle of 13 runs].
As to `CC(C)(C)c1cnc(CSc2cnc(NC(=O)C3CCNCC3)s2)o1` + CCN1CCN(Cc2ccc(Nc3ncc(F)c(-c4cc(F)c5nc(C)n(C(C)C)c5c4)n3)nc2)CC1, the IC50 by setting is: under setting [1], 142 nM; under setting [2], 105 nM; under setting [3], 83.4 nM; under setting [4], 37.5 nM; under setting [5], 34.4 nM. Moreover, the viability, T/C (second compound 0.01 µM, first compound 0.00949 µM) is 90%; the viability, T/C (second compound 0.01 µM, first compound 0.03 µM) was 80.7%; the viability, T/C (second compound 0.01 µM, first compound 0.0949 µM) was 75.5%; the viability, T/C (second compound 0.01 µM, first compound 0.3 µM) was 2.61%; the viability, T/C (second compound 0.01 µM, first compound 0.949 µM) is 0.63%; the viability, T/C (second compound 0.01 µM, first compound 3 µM) was 0.6%. Besides, the viability, T/C is 76.8% (second compound 0.0316 µM, first compound 0.00949 µM); 68.4% (second compound 0.0316 µM, first compound 0.03 µM); 54.6% (second compound 0.0316 µM, first compound 0.0949 µM); 1.44% (second compound 0.0316 µM, first compound 0.3 µM); 0.56% (second compound 0.0316 µM, first compound 0.949 µM); 0.66% (second compound 0.0316 µM, first compound 3 µM). Further, the viability, T/C reads like this: under setting [6], 57.6%; under setting [7], 67.6%; under setting [8], 48.4%; under setting [9], 0.6%; (second compound 0.1 µM, first compound 0.949 µM) 0.61%; (second compound 0.1 µM, first compound 3 µM) 0.61%. The viability, T/C is 51.6% under setting [10]; 54.3% under setting [11]; 37.6% under setting [12]; 0.81% under setting [13]; 0.6% (second compound 0.316 µM, first compound 0.949 µM); 0.72% (second compound 0.316 µM, first compound 3 µM). Also, the viability, T/C is 55.4% under setting [14]; 50.8% under setting [15]; 29.8% under setting [16]; 0.56% under setting [17]; 1.62% (second compound 1 µM, first compound 0.949 µM); 0.76% (second compound 1 µM, first compound 3 µM).

Source of the values: PubChem BioAssay AID2060341 (Molecular Pharmacology Branch, DTP, NCI, 2025).
